Results: article doi:10.1101/815415v1 (biorxiv, 2019)

Target: xylanase from Bacillus circulans (BCX) (Niallia circulans, UniProt P09850)
Test: NMR titration, 1H-15N HSQC 2D lineshape fit
Assay type: binding
Details: 25 mM sodium acetate, pH 5.8, 6% D2O, 20 °C; active site -1/-2 subsites

OC1OC[C@@H](O[C@@H]2OC[C@@H](O)[C@H](O)[C@H]2O)[C@H](O)[C@H]1O (stereo partly shown) [X2, xylobiose]
Kd: 10 mM
